Reference: US4820707A, “2,6-piperazinedione compounds” (ADIR Et Cie, priority 1986, dated 1989)
Counter-ions that a name gives are not always drawn.

Tests used:
Assay type in all cases: in vivo
[1] = Inhibition of the active conditioned avoidance response in rats; settings: i.p.
From the text: The results obtained with the compounds of general formula I during the various experiments employing the method described by Courvoisier et al. in Arch. Int. Pharmacodyn., 1953, 92, p. 305-361 and by Janssen et al. in Arzneim, Forsch, 1965, 15, p.

[2] = Anxiolytic activity by the four-plates test; settings: mice; for change in vivo at 5 mg/kg: 5 mg.kg^-1; for % increase in the responses: p.o.
Procedure: The anxiolytic activity of the compounds of the general formula I was investigated in mice according to the method of Aron Simon Larousse and Boissier described in Neuropharmacology (1971) 10 p. 459-469). After treatment of the animals by means of different doses of the compounds of the invention administered intraperitoneally or orally, the increase in the percentage of transitions during the exploration of the base of the test cage, in the presence of electric shocks, was assessed.

[3] = Anxiolytic activity by MacMillan's conflict test; settings: rats, i.p., vs physiological saline; for % variation in the unpunished responses: NS (not significant); for % variation in the punished responses: S (significant)
From the text: In these conditioning experiments which operate in the presence of a food reward, performed in rats according to the method described by MacMillan in Fed. Proceedings, 1975, 34, (9), p. 1870-1879, two parameters in the animal's behavioral responses are considered. The first parameter is the variation in the level of punished responses, in the presence of an electric shock, under the influence of the treatment in comparison with the level of punished responses under the influence of physiological saline. The second parameter is the variation in the level of unpunished responses, without an electric shock, under the influence of the same treatment, in comparison with the level of unpunished responses when physiological saline is administered. A specific anxiolytic effect is established when, after the administration of a substance, the level of only the punished responses is increased.

[4] = Inhibition of aggression in isolated and bulbectomized rats
Procedure: The inhibition of aggression was assessed according to the method described by Vergnes and Karli in C.R. Soc. Biol. 1963, 157, p. 1061. The effect on the aggression is assessed in terms of the percentage of animals which became non-killers after treatment.

[5] = Anxiolytic activity by the "staircase" test; design: key to % variation in the steps climbed: NS: not significant; settings: rats
From the text: The anxiolytic activity of the compounds of the invention was investigated in rats according to the method described by Thiebot, Soubrie and Boissier in J. Pharmacol. 1976, 7, (1), p. 87-102. In this test, behavior involving rearing movements is associated with a state of distress of the animal. The number of steps climbed represents the normal exploratory behavior of the rat introduced into the enclosure. Normally, an efficacious anxiolytic compound should decrease, during the test which lasts 3 minutes, the number of rearing movements without modifying the number of steps climbed, or on the contrary should increase this latter parameter.

[6] = Inhibition of isolation-induced aggression in mice; settings: Mus musculus, ip, read-out: Inhibitory ED50 (effective dose inhibiting 50% of the aggressive animals)
From the text: The compounds of general formula I inhibit the attacking behavior of mice rendered aggressive by isolation according to the method described by Yen, Stanger and Millman in Arch. Int. Pharmacodyn. 1959, 123, p. 179-185.

[7] = Mus musculus, ip, i.p., read-out: % increase in the responses (transitions)
[8] = Mus musculus, ip, i.p., 25 mg.kg^-1, read-out: % increase in the responses (transitions)
[9] = Mus musculus, ip, i.p., 10 mg.kg^-1, read-out: % increase in the responses (transitions)

## COc1ccccc1N1CCN(CCCN2C(=O)CN(Cc3ccccn3)CC2=O)CC1.Cl.Cl.Cl.Cl [Example 18, 4-(2-Pyridylmethyl)-1-{3-[1-(2-methoxyphenyl)-4-piperazinyl]propyl}-2,6-piperazinedione tetrahydrochloride]
[1]; 10 mg.kg^-1
  % ICAR (percentage inhibition of the conditioned avoidance response): 18%
[1]; 15 mg.kg^-1
  % ICAR (percentage inhibition of the conditioned avoidance response): 35%
[1]; dose not printed in this line
  % ICAR (percentage inhibition of the conditioned avoidance response): 56%

## O=C1CN(Cc2ccccc2F)CC(=O)N1CCCN1CCN(c2ccc(C(F)(F)F)cn2)CC1 [Example 30, 4-(2-Fluorobenzyl)-1-{3-[1-(5-trifluoromethyl-2-pyridinyl)-4-piperazinyl]propyl}-2,6-piperazinedione dihydrochloride]
[2]; [7]
  change in vivo at 5 mg/kg: 40%

## O=C1CN(C(c2ccccc2)c2ccc(Cl)cc2)CC(=O)N1CCCN1CCN(c2cccc(C(F)(F)F)c2)CC1 (stereo not shown) [Example 26, 4-(4-Chlorodiphenylmethyl)-1-{3-[1-(3-trifluoromethylphenyl)-4-piperazinyl]propyl}-2,6-piperazinedione dicitrate]
[2]; 25 mg.kg^-1
  % increase in the responses: 69%

## COc1ccccc1CN1CC(=O)N(CCCN2CCN(c3ccc(C)cc3)CC2)C(=O)C1 [Example 14, 4-(2-Methoxybenzyl)-1-{3-[1-(4-methylphenyl)-4-piperazinyl]propyl}-2,6-piperazinedione]
[3]; 5 mg.kg^-1
  % variation in the unpunished responses: +14%
  % variation in the punished responses: +48%

## Cl.Cl.Cl.O=C1CN(Cc2ccccn2)CC(=O)N1CCCN1CCN(c2ccc(F)cc2)CC1 [Example 7, 4-(2-Pyridylmethyl)-1-{3-[1-(4-fluorophenyl)-4-piperazinyl]propyl}-2,6-piperazinedione trihydrochloride]
[4]; i.p., 25 mg.kg^-1
  % of non-killer animals: 67%
[1]; 10 mg.kg^-1
  % ICAR (percentage inhibition of the conditioned avoidance response): 30%
[1]; 15 mg.kg^-1
  % ICAR (percentage inhibition of the conditioned avoidance response): 48%
[1]; 20 mg.kg^-1
  % ICAR (percentage inhibition of the conditioned avoidance response): 79%

## O=C1CN(CCCN2CCN(c3cccc(C(F)(F)F)c3)CC2)CC(=O)N1Cc1ccccc1 [Example 28, 1-Benzyl-4-{3-[1-(3-trifluoromethylphenyl)-4-piperazinyl]propyl}-2,6-piperazinedione diphosphate]
[2]; [8]
  change in vivo at 25 mg/kg: 82%

## O=C1CN(Cc2ccccc2Cl)CC(=O)N1CCCN1CCN(c2cccc(C(F)(F)F)c2)CC1 [Example 4, 4-(2-Chlorobenzyl)-1-{3-[1-(3-trifluoromethylphenyl)-4-piperazinyl]propyl}-2,6-piperazinedione dimandelate]
[2]; [7]
  change in vivo at 5 mg/kg: 37%
[2]; [8]
  change in vivo at 25 mg/kg: 67%
[2]; 25 mg.kg^-1
  % increase in the responses: 35%
[2]; 50 mg.kg^-1
  % increase in the responses: 58%
[5]; i.p., 10 mg.kg^-1
  % variation in the rearing movements: -47%
  % variation in the steps climbed: NS

## COc1ccccc1CN1CC(=O)N(CCCCN2CCN(c3cccc(C(F)(F)F)c3)CC2)C(=O)C1.Cl.Cl [Example 6, 4-(2-Methoxybenzyl)-1-{4-[1-(3-trifluoromethylphenyl)-4-piperazinyl]butyl}-2,6-piperazinedione dihydrochloride]
[2]; [8]
  change in vivo at 25 mg/kg: 37%
[6]
  ED50: 4.74 mg/kg

## COc1ccccc1CN1CC(=O)N(CCCN2CCN(c3cccc(C(F)(F)F)c3)CC2)C(=O)C1.Cl.Cl [Example 15, 4-(2-Methoxybenzyl)-1-{3-[1-(3-trifluoromethylphenyl)-4-piperazinyl]propyl}-2,6-piperazinedione dihydrochloride]
[2]; Mus musculus, ip, i.p., 20 mg.kg^-1, read-out: % increase in the responses (transitions)
  change in vivo at 20 mg/kg: 52%
[2]; 10 mg.kg^-1
  % increase in the responses: 61%
[2]; 50 mg.kg^-1
  % increase in the responses: 90%
[5]; i.p., 10 mg.kg^-1
  % variation in the rearing movements: -43%
  % variation in the steps climbed: NS
[5]; i.p., 20 mg.kg^-1
  % variation in the rearing movements: -64%
  % variation in the steps climbed: NS
[3]; 10 mg.kg^-1
  % variation in the unpunished responses: +37%
  % variation in the punished responses: +41%
[4]; i.p., 25 mg.kg^-1
  % of non-killer animals: 64%

## Cl.Cl.Cl.O=C1CN(Cc2cccnc2)CC(=O)N1CCCN1CCN(c2cccc(Cl)c2)CC1 [Example 22, 4-(3-Pyridylmethyl)-1-{3-[1-(3-chlorophenyl)-4-piperazinyl]propyl}-2,6-piperazinedione trihydrochloride]
[2]; [9]
  change in vivo at 10 mg/kg: 44%
[4]; i.p., 12,5 mg.kg^-1
  % of non-killer animals: 83%

## Cl.Cl.Cl.O=C1CN(Cc2ccccc2)CC(=O)N1CCCCN1CCN(c2ncccn2)CC1 [Example 5, 4-Benzyl-1-{4-[1-(2-pyrimidinyl)-4-piperazinyl]butyl}-2,6-piperazinedione trihydrochloride]
[5]; i.p., 1,25 mg.kg^-1
  % variation in the rearing movements: -40%
  % variation in the steps climbed: NS

## COc1ccccc1CN1CC(=O)N(CCN2CCN(c3cccc(C(F)(F)F)c3)CC2)C(=O)C1 [Example 16, 4-(2-Methoxybenzyl)-1-{2-[1-(3-trifluoromethylphenyl)-4-piperazinyl]ethyl}-2,6-piperazinedione trihydrochloride]
[2]; [9]
  change in vivo at 10 mg/kg: 41%

## Cc1ccc(N2CCN(CCCN3C(=O)CN(Cc4ccccn4)CC3=O)CC2)cc1.Cl.Cl.Cl [Example 20, 4-(2-Pyridylmethyl)-1-{3-[1-(4-methylphenyl)-4-piperazinyl]propyl}-2,6-piperazinedione trihydrochloride]
[5]; i.p., 2,5 mg.kg^-1
  % variation in the rearing movements: -43%
  % variation in the steps climbed: NS

## COc1cccc(CN2C(=O)CN(CCCN3CCN(c4cccc(C(F)(F)F)c4)CC3)CC2=O)c1 [Example 29, 1-(3-Methoxybenzyl)-4-{3-[1-(3-trifluoromethylphenyl)-4-piperazinyl]propyl}-2,6-piperazinedione diphosphate]
[2]; [8]
  change in vivo at 25 mg/kg: 49%

## Cl.Cl.O=C1CN(Cc2ccccc2)CC(=O)N1CCN1CCN(c2cccc(C(F)(F)F)c2)CC1 [Example 10, 4-Benzyl-1-{2-[1-(3-trifluoromethylphenyl)-4-piperazinyl]ethyl}-2,6-piperazinedione dihydrochloride]
[2]; [8]
  change in vivo at 25 mg/kg: 85%
[3]; 5 mg.kg^-1
  % variation in the unpunished responses: +18%
  % variation in the punished responses: +67%
[4]; i.p., 25 mg.kg^-1
  % of non-killer animals: 66%

## Cl.Cl.Cl.O=C1CN(Cc2ccccn2)CC(=O)N1CCCN1CCN(c2ccccc2Cl)CC1 [Example 17, 4-(2-Pyridylmethyl)-1-{3-[1-(2-chlorophenyl)-4-piperazinyl]propyl}-2,6-piperazinedione trihydrochloride]
[6]
  ED50: 6.11 mg/kg

## O=C1CN(C(c2ccccc2)c2ccccc2)CC(=O)N1CCCN1CCN(c2cccc(C(F)(F)F)c2)CC1 [Example 24, 4-Diphenylmethyl-1-{3-[1-(3-trifluoromethylphenyl)-4-piperazinyl]propyl}-2,6-piperazinedione dimandelate]
[2]; [8]
  change in vivo at 25 mg/kg: 62%

## O=C1CN(C2CCCCC2)CC(=O)N1CCCN1CCN(c2cccc(C(F)(F)F)c2)CC1 [Example 27, 4-Cyclohexyl-1-{3-[1-(3-trilfuoromethylphenyl)-4-piperazinyl]propyl}-2,6-piperazinedione dihydrochloride]
[2]; [8]
  change in vivo at 25 mg/kg: 73%
[5]; i.p., 2,5 mg.kg^-1
  % variation in the rearing movements: -41%
  % variation in the steps climbed: NS

## Cc1ccccc1N1CCN(CCCN2C(=O)CN(C(c3ccccc3)c3ccccc3)CC2=O)CC1 [Example 23, 4-Diphenylmethyl-1-{3-[1-(2-methylphenyl)-4-piperazinyl]propyl}-2,6-piperazinedione trimethanesulfonate]
[2]; [9]
  change in vivo at 10 mg/kg: 47%
[2]; [8]
  change in vivo at 25 mg/kg: 77%
